Reference: patent US20050222218A1, “Screening method and compounds for treating friedreich ataxia” (priority 2002, published 2005)
Entries after “also recorded” stand apart in the source; their conditions may differ. Where two headings read alike, the source gives them in different places.

Tests used:
Format in all cases: cell-based, human
FRDA fibroblasts [1] = test: Rescue of FRDA fibroblasts from BSO-induced cell death (CalceinAM/ethidium homodimer cell viability)
Description: Friedreich Ataxia primary culture fibroblast cell lines F1 and control fibroblast line C1 were provided by the Insel-Spital Bern (Switzerland), FRDA line F3 was provided by Hopital Necker, Paris (France), FRDA lines F2 and control lines C2 and C3 were obtained from Coriell Cell Repositories (Camden, N.J.; catalog numbers GM04078, GM08402 and GM08399 respectively). Cells were grown in a humidified atmosphere supplemented with 5% CO2. For experiments, the cells were trypsinized and resuspended at a density of 40000 cells/ml in growth medium consisting of 25% (v/v) M199 EBS and 64% (v/v) MEM EBS without phenol red (Bioconcept, Allschwil, Switzerland) supplemented with 10% (v/v) fetal calf serum (PAA Laboratories, Linz, Austria), 100 U/ml penicillin, 100 μg/ml streptomycin (PAA Laboratories, Linz, Austria), 10 μg/ml insulin (Sigma, Buchs, Switzerland), 10 ng/ml EGF (Sigma, Buchs, Switzerland) and 10 ng/ml bFGF (PreproTech, Rocky Hill, N.J.) and 2 mM glutamine (Sigma, Buchs, Switzerland).
The cells were seeded in 96-well plates at a density of 4000 cells/well. They were incubated in the presence of various concentrations of L-buthionine-(S,R)-sulfoximine (BSO), an inhibitor of γ-glutamyl cysteine synthase (EC: 6.3.2.2), the rate limiting enzyme in the biosynthesis of glutathione. Cell viability was measured when the first signs of toxicity appeared in the controls (typically after 12 to 48 h). The cells were stained for 60 min at room temperature in PBS with 1.2 μM CalceinAM and 4 μM Ethidium homodimer (Live/Dead assay, Molecular Probes, Eugene, Oreg.). The plates were washed twice with PBS and fluorescence intensity was measured with a Gemini Spectramax XS spectrofluorimeter (Molecular Devices, Sunnyvale, Calif.) using excitation and emission wavelengths of 485 nm and 525 nm respectively. Live cells imaging was performed with a Zeiss Axiovert 135M fluorescence microscope equipped with a cooled CCD camera (Sensicam, PCO Computer Optics, Kelheim, FRG). Image acquisition was performed with the ImagePro Plus software (Media Cybermetics, Silver Spring, Md.).
[…] Cell viability was measured as described in Example 2.
Cell viability was measured after a further 48 hours incubation as described in Example 2. EC50 values were deduced from the dose-response curves. The natural CoQ10 was not active in this assay (Table 1). However, a possible bioavailability problem with this molecule due to its 50 carbon atom side chain can not be ruled out. CoQ1 had EC50 values similar to Idebenone (0.2 μM). CoQ2 performed better than Idebenone, with an EC50 value of 30 nM. […] Decylubiquinone was almost as effective as CoQ2, with an EC50 of 40 nM.
FRDA cells were incubated with increasing concentrations of sodium selenite (prepared as a stock solution 5 mM in PBS) for 24 hours, then subjected to BSO stress. Cell viability was measured as described in Example 2.
Based on the previous results, the hypothesis whether small-molecules GPX mimetics could rescue the cell death phenotype of FRDA cells when exposed to BSO was tested. FRDA cells were incubated for 24 hours in the presence of Ebselen, a GPX mimetic (Muller, A., et al., “A novel biologically active seleno-organic compound—I. Glutathione peroxidase-like activity in vitro and antioxidant capacity of PZ 51 (Ebselen)”, Biochem Pharmacol, 33, 3235-9., (1984)) and then subjected to 1 mM BSO treatment.
FRDA cells were incubated in the presence of a number of GPX mimetics. Two classes of molecules (FIG. 7) were evaluated: monoselenides (compound number 4, 5 and 8) and diselenides (compound number 1-3, 6, 7, 9-16). Dose-response curves were obtained for each molecule. From the dose-response curves not only the EC50, but also the concentration range for which a molecule produced at least 50% cell survival upon BSO challenge was calculated (FIG. 8).
GPX mimetics were tested as described in Example 3. Dose-response curves were obtained for all compounds tested. […]

[2] = tested on: intracellular GSH in control and FRDA cells; test: Intracellular glutathione content (monochlorobimane method)
Description: (§1) Control and FRDA cells (5×10^5 cells grown in 10 cm dishes) were preincubated with sodium selenite (500 nM) for 24 hours and then subjected to 1 mM BSO treatment for 24 hours. Total cell extracts were used to measure glutathione content, glutathione peroxidase activity and glutathione-S-transferase activity.
To determine the glutathione content, cells were trypsinized, washed twice with PBS and snap frozen in 100 μl PBS. Cells were lysed in PBS supplemented with a protease inhibitor cocktail (Complete, Roche Diagnostics, Rotkreuz, Switzerland) by 4 freeze/thaw cycles. Total protein content was measured with the BioRad protein assay (BioRad, Hercules, Calif.) using calibrated bovine serum albumin solutions as standards (Pierce). Reduced glutathione content was measured essentially as described (Kamencic, H., et al., Monochlorobimane fluorometric method to measure tissue glutathione, Anal Biochem, 286, 35-7., (2000)) with a final monochlorobimane (mClB) (Molecular Probes, Eugene, Oreg.) concentration of 25 μM. The GSH-mClB adduct fluorescence was measured with a Gemini spectrofluorimeter using excitation and emission wavelengths of 380 nm and 470 nm respectively. Known amounts of reduced glutathione were used as standards.

[3] = tested on: GPX enzymatic activity in FRDA cells; test: Glutathione peroxidase activity in FRDA cell extracts
Description: as §1
(§2) To determine the glutathione peroxidase activity, cell extracts obtained for total GSH measurements were adjusted with PBS to a final protein concentration of 1.85 mg/ml. Enzymatic activity was measured with the Glutathione peroxidase cellular activity assay kit (Sigma, St Louis, Mo.) essentially according to the instructions of the manufacturer: Enzymatic activity was measured with 40 μg total protein extract in a final reaction volume of 100 μl. NADPH consumption was measured by the decrease in NADPH fluorescence at 445 nm. All measurements were done in triplicate in 96-well plates with a Gemini spectrofluorimeter using excitation and emission wavelengths of 340 nm and 445 nm respectively. Glutathione-S-transferase activity was determined in the same way as the glutathione content, except that the assay was performed in the presence of an excess of glutathione (1 mM) instead of an excess of exogenous glutathione-S-transferase. Because the BSO treatment is known to deplete cellular (GSH) levels, intracellular GSH concentrations were measured first. Any difference in basal glutathione levels between the two cell lines that were tested were not observed (FIG. 4, panel A). […] (FIG. 4, panel A). From this, it was concluded that the GSH levels per se are not responsible for the observed difference in phenotype between the two cell types. […] Therefore, GPX enzymatic activity in extracts from both cell types was compared. This measurement is based on the recycling of oxidized glutathione generated by GPX, using tert-butyl hydroperoxide as substrate. Oxidized glutathione is reduced by an excess exogenous glutathione reductase that will consume a corresponding amount of NADPH that is then measured by fluorescence. […]

FRDA fibroblasts [4] = test: BSO sensitivity of FRDA fibroblasts (cell viability)
Description: (§3) Friedreich Ataxia primary culture fibroblast cell lines F1 and control fibroblast line C1 were provided by the Insel-Spital Bern (Switzerland), FRDA line F3 was provided by Hopital Necker, Paris (France), FRDA lines F2 and control lines C2 and C3 were obtained from Coriell Cell Repositories (Camden, N.J.; catalog numbers GM04078, GM08402 and GM08399 respectively). Cells were grown in a humidified atmosphere supplemented with 5% CO2. […]
(§4) The cells were seeded in 96-well plates at a density of 4000 cells/well. […] Cell viability was measured when the first signs of toxicity appeared in the controls (typically after 12 to 48 h). […] The plates were washed twice with PBS and fluorescence intensity was measured with a Gemini Spectramax XS spectrofluorimeter (Molecular Devices, Sunnyvale, Calif.) using excitation and emission wavelengths of 485 nm and 525 nm respectively. Live cells imaging was performed with a Zeiss Axiovert 135M fluorescence microscope equipped with a cooled CCD camera (Sensicam, PCO Computer Optics, Kelheim, FRG). […]

[5] = tested on: GPX enzymatic activity in control cells; test: Glutathione peroxidase activity in control cell extracts
Description: as §1, §2

control fibroblasts = test: BSO sensitivity of control fibroblasts (cell viability)
Description: as §3, §4

[6] = tested on: GST activity in control cells; test: Glutathione-S-transferase activity in control cell extracts; conditions: 500 nM sodium selenite or 1 mM BSO
Description: as §1
(§5) To determine the glutathione peroxidase activity, cell extracts obtained for total GSH measurements were adjusted with PBS to a final protein concentration of 1.85 mg/ml. Enzymatic activity was measured with the Glutathione peroxidase cellular activity assay kit (Sigma, St Louis, Mo.) essentially according to the instructions of the manufacturer: Enzymatic activity was measured with 40 μg total protein extract in a final reaction volume of 100 μl. NADPH consumption was measured by the decrease in NADPH fluorescence at 445 nm. […] Glutathione-S-transferase activity was determined in the same way as the glutathione content, except that the assay was performed in the presence of an excess of glutathione (1 mM) instead of an excess of exogenous glutathione-S-transferase. Because the BSO treatment is known to deplete cellular (GSH) levels, intracellular GSH concentrations were measured first. […] Oxidized glutathione is reduced by an excess exogenous glutathione reductase that will consume a corresponding amount of NADPH that is then measured by fluorescence. […]

[7] = tested on: GST activity in FRDA cells; test: Glutathione-S-transferase activity in FRDA cell extracts; conditions: 500 nM sodium selenite
Description: as §1, §5

FRDA fibroblasts [8] = test: Rescue of FRDA fibroblasts from BSO-induced cell death (CalceinAM/ethidium homodimer cell viability); conditions: no preincubation
[9] = FRDA cells preincubated 24 h with compound, then 1 mM BSO, read-out: EC50 value, prevention of cell death
[10] = Homo sapiens, Fibroblast, Table 1, 24 h preincubation, 1 mM BSO, viability after further 48 h, read-out: EC50
[11] = 500 nM sodium selenite, then 1 mM BSO

COC1=C(OC)C(=O)C(C/C=C(\C)CC/C=C(\C)CC/C=C(\C)CC/C=C(\C)CC/C=C(\C)CC/C=C(\C)CC/C=C(\C)CC/C=C(\C)CC/C=C(\C)CCC=C(C)C)=C(C)C1=O [CoQ10]
activity in rescuing FRDA cells from BSO (in words) (FRDA fibroblasts [1]; 24 h preincubation, 1 mM BSO): not active; also recorded: did not reach the 50% cell viability rescue | EC50 (FRDA fibroblasts [1]; Table 1, 24 h preincubation, 1 mM BSO, viability after further 48 h, read-out: EC50): > 50000 nM

Vitamin E
EC50 (FRDA fibroblasts [1]; [9]): 700 nM

COC1=C(OC)C(=O)C(C)=CC1=O [CoQ0]
activity in rescuing FRDA cells from BSO (in words) (FRDA fibroblasts [1]; 24 h preincubation, 1 mM BSO): inactive; also recorded: not active

CCCCS(=N)(=O)CCC(N)C(=O)O [BSO, L-buthionine-(S,R)-sulfoximine]
effect of BSO on glutathione levels ([2]; 1 mM BSO 24 h, both cell types): reduction in glutathione levels | effect of BSO on GPX enzyme activity ([3]; 1 mM BSO 24 h, no selenium): small decrease in enzyme activity | viability compared to untreated controls (FRDA fibroblasts [4]; 1 mM BSO, FRDA cell lines F1-F3): less than 10% | BSO concentration giving marked reduction in cell titer (FRDA fibroblasts [4]; overnight exposure): 4 µM | effect of BSO on GPX enzyme activity ([5]; 1 mM BSO 24 h, no selenium): small decrease in enzyme activity | viability compared to untreated controls (average) (control fibroblasts; 1 mM BSO, control cell lines C1-C3): 60% | BSO concentration giving slight decrease in cell density (control fibroblasts; overnight exposure): 100 µM | effect on GST activity [6]: neither modulated

Cc1c(C)c2c(c(C)c1O)CCC(C)(C(=O)O)O2 (stereo not shown) [Trolox, 6-hydroxy-2,5,7,8-tetramethylchroman-2-carboxylic acid]
viability at 25 µM (FRDA fibroblasts [1]; Homo sapiens, Fibroblast, read-out: cell viability preserved): 60% | cell viability (FRDA fibroblasts [1]; concentrations higher than 25 μM, 1 mM BSO): 55%

COC1=C(OC)C(=O)C(CCCCCCCCCCO)=C(C)C1=O [Idebenone, 2,3-dimethoxy-5-methyl-6(10-hydroxydecyl)-1,4-benzoquinone]
rescue effect at the highest concentration tested (FRDA fibroblasts [1]; 50 μM compound, 1 mM BSO): slightly diminished | appearance of treated cells upon microscopic examination (FRDA fibroblasts [1]; 1 mM BSO + 5 μM Idebenone, CalceinAM/ethidium homodimer): undistinguishable from untreated cells | concentration at which full rescue was observed (FRDA fibroblasts [1]; 24 h preincubation, 1 mM BSO): 2 µM | EC50 (FRDA fibroblasts [1]; Homo sapiens, Fibroblast, FRDA cells preincubated 24 h with compound, then 1 mM BSO, read-out: EC50 value, prevention of cell death): 500 nM | EC50 (FRDA fibroblasts [1]; [10]): 500 nM

CCCCCCCCCCC1=C(C)C(=O)C(OC)=C(OC)C1=O [Decylubiquinone, 2,3-Dimethoxy-5-methyl-6-decyl-1,4-benzoquinone]
working range (concentrations giving at least 50% cell viability) (FRDA fibroblasts [1]; 1 mM BSO): up to 3 orders of magnitude | EC50 (FRDA fibroblasts [1]; Homo sapiens, Fibroblast, FRDA cells preincubated 24 h with compound, then 1 mM BSO, viability after further 48 h, read-out: EC50 value, rescue of FRDA cell death): 40 nM | EC50 (FRDA fibroblasts [1]; [10]): 40 nM

CoQ1
EC50 (FRDA fibroblasts [1]; [9]): 200 nM

O=[Se]([O-])[O-].[Na+].[Na+] [sodium selenite]
effect of selenium preincubation on BSO glutathione depletion ([2]; 500 nM sodium selenite 24 h, then 1 mM BSO 24 h): did not prevent the glutathione depletion | concentration that protected the cells fully (FRDA fibroblasts [1]; 24 h preincubation, then BSO): 200 nM | effect of concentrations higher than 200 nM (FRDA fibroblasts [1]; 24 h preincubation, then BSO): enhanced cell growth | increase in basal GPX enzyme activity ([3]; 500 nM sodium selenite, no BSO): 50% | factor of increase in GPX activity [3, 11]: 3 | effect on basal GPX activity ([5]; 500 nM sodium selenite, no BSO): not enhanced | effect on GPX activity under BSO treatment [5, 11]: prevented the enzyme activity loss | effect on GST activity [7]: slightly reduces | effect on GST activity [6]: neither modulated | protection when added at the same time as BSO (FRDA fibroblasts [8]): did not protect

COC1=C(OC)C(=O)C(C/C=C(\C)CCC=C(C)C)=C(C)C1=O [CoQ2]
EC50 (FRDA fibroblasts [1]; FRDA cells preincubated 24 h with compound, then 1 mM BSO, viability after further 48 h, read-out: EC50 value, rescue of FRDA cell death): 30 nM
